Structures can show the parent of a compound that is named as a salt. Where two headings read alike, the source gives them in different places.
Tested on: stationary phase B. burgdorferi
Assay: SYBR Green I/PI viability assay (drug library screen, plate reader)
Conditions: for Residual viable cells (SYBR/PI): Table 3; for viability at 50 µM: Borreliella burgdorferi, 168 h; for activity against stationary phase B. burgdorferi (in words): screen at 50 μM, 7 days
Description: Borrelia burgdorferi strain B31 (ATCC35210) was received from the […] (Manassas, Va., USA) and was grown in BSK-H medium (HiMedia Laboratories, Mumbai, India) and 6% rabbit serum (Sigma Aldrich, St. Louis, Mo., USA). The culture was filtered and sterilized using a […] and incubated in capped sterile 50 mL conical tubes (BD Biosciences, CA, USA) at 33° C. for 7 days without antibiotics until the culture reached stationary phase.
The cultures were examined using a Nikon Eclipse E800 microscope with differential interference contrast and epifluorescent illumination. The pictures were captured using a SPOT slider color camera. A SYBR Green I/PI assay was used to assess the viability of the bacterial sample using the ratio of live to dead B. burgdorferi (measured with green and red fluorescence, respectively) as measured by a plate reader.
Briefly, prediluted drug stock (10 μL) was added to 7 day old stationary phase B. burgdorferi culture (90 μL) to achieve a 50 μM final drug concentration per well. The plates were then incubated at 33° C. for 7 days at which point the SYBR/PI rapid viability assay was performed in a fluorescence plate reader to obtain the green-red fluorescence ratio.

[1] = drugs 50 μM, 7-day old stationary phase cells treated for 7 days
[2] = read-out: Residual viable cells (SYBR/PI)
[3] = read-out: Residual viable cells (SYBR/PI), Table 3, drugs 50 μM, 7-day old stationary phase cells treated for 7 days
[4] = read-out: Residual viable cells (SYBR Green/PI), Table 1, drugs 50 μM, 7 day old stationary phase cells treated for 7 days

Row | Compound | viability at 50 µM [3] [%] | other results
1 | [I-].[K+] [Potassium iodide] |  | Residual viable cells (SYBR/PI) [1]: 65%
2 | COP(=O)(OC)C(O)C(Cl)(Cl)Cl (centres unmarked) [Metrifonate] |  | viability at 50 µM [2]: 51%
3 | Oc1ccc(Cl)c2cccnc12 [Cloxyquin (5-chloro-8-hydroxy-quinoline), 5-chloro-8-hydroxy-quinoline] | 60 | 
4 | Nc1ccc([As](=O)(O)O)cc1 [p-Arsanilic acid] |  | Residual viable cells (SYBR/PI) [1]: 49%
5 | CC(C)[C@H](N)C(=O)OCCOCn1cnc2c(=O)[nH]c(N)nc21 [Valacyclovir] | 58 | 
6 | C[C@@H]1[C@H](O)[C@@H](C)/C=C/C=C/CC/C=C/C=C/C=C/C=C/C(O[C@H]2O[C@H](C)[C@@H](O)[C@H](N)[C@@H]2O)CC2O[C@](O)(CC(O)C(O)CCC(O)CC(O)CC(O)CC(=O)O[C@H]1C)CC(O)C2C(=O)O (some centres unmarked) [Nystatin] |  | Residual viable cells (SYBR Green/PI) (Table 1, drugs 50 μM, 7 day old stationary phase cells treated for 7 days): 64%; Residual viable cells (SYBR/PI) [1]: 64%; activity against stationary phase B. burgdorferi (in words): reasonable activity
7 | c1ccc(C2CN3CCSC3=N2)cc1 (centres unmarked) [Tetramisole] | 48 | viability at 50 µM [4]: 48%
8 | Nc1cc(C(Cl)=C(Cl)Cl)c(S(N)(=O)=O)cc1S(N)(=O)=O [Clorsulon] | 71 | 
9 | CO[C@H]1/C=C/O[C@@]2(C)Oc3c(C)c(O)c4c(O)c(c5c(nc6cc(C)ccn65)c4c3C2=O)NC(=O)/C(C)=C\C=C\[C@H](C)[C@H](O)[C@@H](C)[C@@H](O)[C@@H](C)[C@H](OC(C)=O)[C@@H]1C [Rifaximin] | 51 | 
10 | COC1=CC(=O)C[C@@H](C)[C@]12Oc1c(Cl)c(OC)cc(OC)c1C2=O [Griseofulvin] | 63 | viability at 50 µM [4]: 63%
11 | CC(C)Cn1cnc2c(N)nc3ccccc3c21 [Imiquimod] |  | viability at 50 µM [2]: 64%
12 | O=C(Nc1ccccc1)c1ccccc1O [Salicylanilide] |  | viability at 50 µM [2]: 63%
13 | O=C(O)CCNC(=O)c1ccccc1 [Betamipron (n-benzoyl-b-alanine), n-benzoyl-b-alanine] | 68 | 
14 | O=C(N/N=C/c1ccc([N+](=O)[O-])o1)c1cc([N+](=O)[O-])cc([N+](=O)[O-])c1O [Nifursol] | 51 | 
15 | COC(=O)N/N=C/c1c[n+]([O-])c2ccccc2[n+]1[O-] [Carbadox] | 69 | 
16 | O=C(Cn1ccnc1[N+](=O)[O-])NCc1ccccc1 [Benznidazole] | 53 | 
17 | O=C1Nc2ccc(Cl)cc2[C@@](C#CC2CC2)(C(F)(F)F)O1 [Efavirenz] | 60 | 
18 | Cc1cn([C@H]2C=C[C@@H](CO)O2)c(=O)[nH]c1=O [2′,3′-Didehydro-3′-Deoxythymidine] | 65 | 
19 | C[C@H]1[C@H](OC(=O)CCC(=O)O)O[C@@H]2O[C@@]3(C)CC[C@H]4[C@H](C)CC[C@@H]1[C@@]24OO3 [Artesunate] | 58 | 
20 | O=c1n(Cl)c(=O)n(Cl)c(=O)n1Cl [Symclosene (Trichloroisocyanuric acid), Trichloroisocyanuric acid] |  | viability at 50 µM [2]: 60%
21 | C[C@H]1COc2c(C3(N)CC3)c(F)cc3c(=O)c(C(=O)O)cn1c23 [Pazufloxacin] | 69 | 
22 | NCC[C@H](O)C(=O)N[C@@H]1C[C@H](N)[C@@H](O[C@H]2O[C@H](CN)[C@@H](O)[C@H](O)[C@H]2O)[C@H](O)[C@H]1O[C@H]1O[C@H](CO)[C@@H](O)[C@H](N)[C@H]1O [Amikacin] | 57 | 
23 | C[C@@H](c1ncncc1F)[C@](O)(Cn1cncn1)c1ccc(F)cc1F [Voriconazole] | 65 | 
24 | CC(N)C12CC3CC(CC(C3)C1)C2 (centres unmarked) [Rimantadine] | 68 | 
25 | O=C(Nc1ccc(Cl)cc1)Nc1ccc(Cl)c(Cl)c1 [3,4,4′-Trichlorocarbanilide] |  | Residual viable cells (SYBR/PI) [1]: 45%

Row | Compound | viability at 50 µM [3] [%] | other results
26 | O=c1[nH]c(=O)n([C@H]2C[C@H](O)[C@@H](CO)O2)cc1F [Floxuridine, 5-fluorodeoxyuridine] | 61 | viability at 50 µM [4]: 61%
27 | Cc1c(O)cccc1C(=O)N[C@@H](CSc1ccccc1)[C@H](O)CN1C[C@H]2CCCC[C@H]2C[C@H]1C(=O)NC(C)(C)C [Nelfinavir mesylate] | 66 | 
28 | CN1CCN(c2c(F)cc3c(=O)c(C(=O)O)cn(CCF)c3c2F)CC1 [Fleroxacin] | 73 | 
29 | Nc1nc(O)c2ncn(COC(CO)CO)c2n1 [Ganciclovir] | 53 | viability at 50 µM [4]: 53%
30 | Cc1cc(C2CCCCC2)n(O)c(=O)c1 [Ciclopirox olamine] | 66 | 
31 | Clc1ccc(CCC(Cn2ccnc2)Sc2c(Cl)cccc2Cl)cc1 (centres unmarked) [Butoconazole nitrate] | 74 | 
32 | CC(=O)OCC1=C(C(=O)O)N2C(=O)[C@@H](NC(=O)CCC[C@@H](N)C(=O)O)[C@H]2SC1 [Cephalosporin C] |  | Residual viable cells (SYBR/PI) [1]: 58%
33 | CC(C)(C)CC(C)(C)c1ccc(O)c(Cc2ccc(Cl)cc2Cl)c1 [Clofoctol] | 73 | 
34 | O=[N+]([O-])c1ccc(O)c2ncccc12 [Nitroxoline (8-hydroxy 5-nitroquinoline), 8-hydroxy 5-nitroquinoline] | 66 | 
35 | CC(=O)OCC(CCn1cnc2cnc(N)nc21)COC(C)=O [Famciclovir] | 68 | 
36 | CCC(=O)O[C@@H]1CC(=O)O[C@H](C)C/C=C/C=C/[C@H](O)[C@H](C)C[C@H](CC=O)[C@H](O[C@@H]2O[C@H](C)[C@@H](O[C@H]3C[C@@](C)(O)[C@@H](OC(=O)CC)[C@H](C)O3)[C@H](N(C)C)[C@H]2O)[C@H]1OC [Midecamycin] | 54 | 
37 | NC1CCN(c2nc3c(cc2F)c(=O)c(C(=O)O)cn3-c2ccc(F)cc2F)C1 (centres unmarked) [Tosufloxacin] | 57 | viability at 50 µM [4]: 57%
38 | N#CCC(=O)NN [Cyacetacide] | 61 | viability at 50 µM [4]: 61%
39 | NC(=O)c1cc[n+](CC2=C(C(=O)O)N3C(=O)[C@@H](NC(=O)[C@@H](c4ccccc4)S(=O)(=O)[O-])[C@H]3SC2)cc1 [Cefsulodin] | 60 | viability at 50 µM [4]: 60%
40 | CC(=O)Nc1ccc(/C=N/NC(N)=S)cc1 [Thiacetazone (Amithiozone), Amithiozone] | 73 | 
41 | CS(=O)(=O)c1ccc([C@@H](O)[C@@H](CF)NC(=O)C(Cl)Cl)cc1 [Florfenicol] | 53 | 
42 | CCN(CC)CCOc1ccc2c(c1)C(=O)c1cc(OCCN(CC)CC)ccc1-2 [Tilorone, Tilorone dihydrochloride] | 44 | viability at 50 µM [4]: 44%; activity against stationary phase B. burgdorferi (in words): good activity
43 | O=C(Nc1ccc(C(=O)O)c(O)c1)c1ccccc1 [Benzoylpas, 4-Benzamido salicylic acid, calcium salt] | 55 | viability at 50 µM [4]: 55%
44 | Cc1nc(C)c(Cl)c(O)c1Cl [Clopidol] | 57 | 
45 | Nc1ccc(C(=O)O)c(O)c1 [4-Aminosalicylic acid] |  | viability at 50 µM [2]: 66%
46 | COC(=O)c1ccc(O)c2nc3c(C=O)c(O)cc(O)c3nc12 [Lomofungin] | 58 | 
47 | NC(=O)c1ncn([C@@H]2O[C@H](CO)[C@@H](O)[C@H]2O)n1 [Ribavirin] | 63 | viability at 50 µM [4]: 63%
48 | C=N[C@@H](C(=O)N[C@@H]1C(=O)N2[C@@H]1SC(C)(C)[C@@H]2C(=O)O)c1ccccc1 [Metampicillin] | 57 | 
49 | Nc1ccc(S(=O)(=O)Nc2ccc(Cl)nn2)cc1 [Sulfachlorpyridazine] |  | viability at 50 µM [2]: 58%
